# US20220354849A1, “COMPOSITION FOR PREVENTING OR TREATING METABOLIC LIVER DISEASE” (STANDIGM INC., priority 2019, published 2022)
# Values joined by “and” are separate entries in the source; they are usually repeats but may differ in a detail not shown here. Identical values can stand only once.
# Experiments:
# NASH model mice [1] = test: NASH model mice (STZ + high-fat diet), oral trametinib study: liver histology, NAFLD activity score, fibrosis area, liver weight; type: in vivo, mouse (C57BL/6); set-up: fibrosis area score (sirius red-positive area): unit not given here; settings: for fibrosis area score (sirius red-positive area) / NAFLD activity score (NAS): telmisartan 10 mg/kg p.o., once daily 6 to 9 weeks of age; for fibrosis area score (sirius red-positive area): vehicle 0.69±0.13; for NAFLD activity score (NAS): vehicle 4.29±0.49
# From the text: (§1) Pathogen-free C57BL/6 mice on the 14th day of pregnancy were obtained from Japan SLC, Inc. (Japan).
# (§2) NASH was established in male mice by a single subcutaneous injection of […] streptozotocin (STZ, Sigma, USA) 2 days after birth and feeding with a high-fat diet (CLEA Japan Inc., Japan) ad libitum after 4 weeks of age (day 28±2).
# In order to determine a safe oral administration dose of trametinib, as in Example 2, the NASH mice in Example 1 were randomly divided into 3 groups of 7 or 8 mice.Thereafter, the mice of 3 groups were orally administered with the following compounds at about […].
# Group 1 (vehicle administration group:negative control group): 7 NASH mice were orally administered with a vehicle (1% DMSO in saline) in a volume of 10 mL/kg once daily from 6 weeks to 9 weeks of age.
# Group 2 (telmisartan administration group:positive control group): 8 NASH mice were orally administered with purified water supplemented with telmisartan at a dose of 10 mg/kg (in a volume of 10 mL/kg) once daily from 6 weeks to 9 weeks of age.
# Group 3 (trametinib administration group:experimental group): 8 NASH mice were orally administered with a vehicle supplemented with trametinib at a dose of 0.2 mg/kg (in a volume of 10 mL/kg) once daily from 6 weeks to 9 weeks of age.
# (§3) The body weight of each mouse was measured daily during the administration period, and the survival rate, clinical symptoms, and behaviors of each mouse were monitored daily.
# For histological analysis of liver tissue, mice in Groups 1 to 3 of Example 5 were sacrificed at 9 weeks of age, and then H&E staining, NAFLD activity score measurement, and sirius red staining were performed according to the method of Example 3.
# The NAFLD activity score for liver tissue was estimated according to the method of Example 3-2.
# According to the method of Example 3-4, a percentage of a fibrosis area due to inflammation and a value of a sirius red-positive area were each estimated through sirius red staining.
# Statistical analysis of the data of the Examples above was performed using the Bonferroni Multiple Comparison Test. p<0.05 was regarded as statistically significant.
# NASH model mice [2] = test: NASH model mice (STZ + high-fat diet), intraperitoneal trametinib study: liver histology, NAFLD activity score, fibrosis area, liver weight; type: in vivo, mouse (C57BL/6); set-up: key to NAFLD activity score (NAS): NAS: sum of steatosis, inflammation, ballooning scores (Kleiner criteria); key to steatosis score / ballooning score: severity score per Kleiner's criteria on H&E sections; fibrosis area score (sirius red-positive area): unit not given here; settings: for fibrosis area score (sirius red-positive area) / NAFLD activity score (NAS): telmisartan 10 mg/kg p.o., once daily 6 to 9 weeks of age; for fibrosis area score (sirius red-positive area): vehicle 0.89±0.19; for NAFLD activity score (NAS): vehicle 4.38±0.52
# From the text: as §1, §2
# On the day before the start of administration based on the body weight of mice, the NASH mice at 6 weeks of age (day 42±2) prepared in Example 1 were randomly divided into 3 groups of 8 mice.
# The present inventors selected trametinib as a substance expected to have a therapeutic effect on non-alcoholic steatohepatitis through a screening method using artificial intelligence (AI) deep learning technology. In order to identify whether the substance has an effect on non-alcoholic steatohepatitis, the 3 groups of mice were each intraperitoneally or orally administered with the following compounds at an amount of about […]. As the negative control group of trametinib in the present invention, the vehicle administration group was treated with a solvent of the same amount used for compound dissolution. Telmisartan (Boehringer Ingelheim GmbH, Germany) was used in the positive control group. The telmisartan is a compound which has anti-NASH, anti-fibrosis, and anti-inflammatory effects in NASH and in a liver disease animal model related to NASH.
# Group 1 (vehicle administration group: negative control group): 8 NASH mice were intraperitoneally administered with a vehicle (4% DMSO in saline) in a volume of 5 mL/kg once daily from 6 weeks to 9 weeks of age.
# Group 2 (telmisartan administration group: positive control group): 8 NASH mice were orally administered with purified water supplemented with telmisartan at a dose of 10 mg/kg once daily from 6 weeks to 9 weeks of age.
# Group 3 (trametinib administration group: experimental group): 8 NASH mice were intraperitoneally administered with a vehicle supplemented with trametinib at a dose of 2 mg/kg once daily from 6 weeks to 9 weeks of age.
# as §3
# For histological analysis of liver tissue, mice in Groups 1 to 3 were sacrificed at 9 weeks of age, and the liver was excised therefrom.
# For H&E staining, after sectioning liver tissue, a liver tissue slide fixed with paraffin was immersed in a xylene solution for 3 minutes to remove the paraffin. Thereafter, in order to remove the xylene, the liver tissue slide was immersed in 100% ethanol for 3 minutes and then hydrated with distilled water. Subsequently, the liver tissue slide was immersed in a hematoxylin solution for 5 to 10 minutes and then hydrated with distilled water for 5 minutes, followed by quickly immersing it twice in a 1% HCl solution, and then hydrating with distilled water. Then, the liver tissue slide was immersed in a 1% ammonia solution for 2 minutes to stain the tissue blue. Thereafter, the liver tissue stained blue was immersed in an eosin solution for 2 minutes, followed by immersing the resultant in ethanol for about 3 to 5 minutes. Lastly, the liver tissue was immersed in a xylene solution, whereupon the thus-stained liver fragment was observed under a microscope.
# The NAFLD activity score (NAS) is a combined value obtained by considering each condition of steatosis, inflammation, and ballooning, which are observed in a liver section stained with H&E. The NAFLD score was calculated according to Kleiner's criteria (Kleiner DE et al., 2005).
# Steatosis, inflammation, and ballooning scores were determined according to severity of symptoms based on observation in H&E-stained liver sections.
# For sirius red staining, a sirius red reagent was maintained in an equilibrium state and stirred gently. […]
# [3] = trametinib 0.2 mg/kg p.o. once daily, 6 to 9 weeks of age
# [4] = trametinib 2 mg/kg i.p. once daily, 6 to 9 weeks of age
structure (smiles),measurement,setting,value
CCCc1nc2c(C)cc(-c3nc4ccccc4n3C)cc2n1Cc1ccc(-c2ccccc2C(=O)O)cc1 [telmisartan],fibrosis area score (sirius red-positive area),NASH model mice [1]; trametinib 0.2 mg/kg p.o.,0.44±0.06 and 0.4
same,NAFLD activity score (NAS),NASH model mice [1]; trametinib 0.2 mg/kg p.o.,2.25±0.46
same,number of subjects with a steatosis score of 1,"NASH model mice [2]; telmisartan 10 mg/kg p.o. once daily, 6 to 9 weeks of age, 8 mice, vehicle 6 subjects",1
same,fibrosis area score (sirius red-positive area),NASH model mice [2]; trametinib 2 mg/kg i.p.,0.40±0.15 and 0.4
same,NAFLD activity score (NAS),NASH model mice [2]; trametinib 2 mg/kg i.p.,2.75±0.46
"CC(=O)Nc1cccc(-n2c(=O)n(C3CC3)c(=O)c3c(Nc4ccc(I)cc4F)n(C)c(=O)c(C)c32)c1 [trametinib, N—(3—{3—cyclopropyl—5-[(2-fluoro-4-iodophenyl)amino]-6,8-dimethyl-2,4,7-trioxo-3 ,4,6,7-tetrahydropyrido [4,3-d]pyrimidin-1(2H)-yl}phenyl)acetamide]",pathological conditions (sirius red staining) compared to vehicle administration group,NASH model mice [1]; [3],improved
same,pathological conditions of liver tissue (H&E staining) compared to vehicle administration group,NASH model mice [1]; [3],improved
same,steatosis score,"NASH model mice [1]; trametinib 0.2 mg/kg p.o. once daily, 6 to 9 weeks of age, mean ± standard deviation, vehicle 0.86±0.38",0.38±0.52 and 0.4
same,inflammation score,"NASH model mice [1]; trametinib 0.2 mg/kg p.o. once daily, 6 to 9 weeks of age, vehicle 2.71±0.49",1.75±0.71 and 1.8
same,liver-to-body weight ratio,"NASH model mice [1]; trametinib 0.2 mg/kg p.o. once daily, 6 to 9 weeks of age, vehicle 8.7±0.8%",7.4±0.8%
same,average liver weight,"NASH model mice [1]; trametinib 0.2 mg/kg p.o. once daily, 6 to 9 weeks of age, vehicle 1776±189 mg",1466 ± 169 mg
same,number of subjects with a steatosis score of 1,"NASH model mice [1]; trametinib 0.2 mg/kg p.o. once daily, 8 mice, vehicle 6 subjects",3
same,fibrosis area score (sirius red-positive area),NASH model mice [1]; trametinib 0.2 mg/kg p.o.,0.34±0.15 and 0.3
same,NAFLD activity score (NAS),NASH model mice [1]; trametinib 0.2 mg/kg p.o.,2.88±1.13
same,percentage of fibrosis area compared to vehicle administration group,"NASH model mice [1]; trametinib 0.2 mg/kg p.o., sirius red staining",reduced
same,steatosis score,"NASH model mice [2]; trametinib 2 mg/kg i.p. once daily from 6 to 9 weeks of age, H&E liver sections, vehicle average 0.8",0
same,fibrosis (sirius red staining) compared to vehicle administration group,NASH model mice [2]; [4],alleviated
same,pathological conditions of liver tissue (H&E staining) compared to vehicle administration group,NASH model mice [2]; [4],improved
same,reduction of average liver weight compared to vehicle administration group,NASH model mice [2]; [4],40%
same,"subjects with a ballooning score of 0, share of total number of subjects",NASH model mice [2]; [4],100%
same,number of subjects with a ballooning score of 0,"NASH model mice [2]; trametinib 2 mg/kg i.p. once daily, 6 to 9 weeks of age, 8 mice",eight
same,ballooning score,"NASH model mice [2]; trametinib 2 mg/kg i.p. once daily, 6 to 9 weeks of age, all subjects",0
same,liver-to-body weight ratio,"NASH model mice [2]; trametinib 2 mg/kg i.p. once daily, 6 to 9 weeks of age, vehicle 7.0±0.8%",5.3±0.96%
same,average liver weight,"NASH model mice [2]; trametinib 2 mg/kg i.p. once daily, 6 to 9 weeks of age, vehicle 1444±106 mg",873 ± 218 mg
same,fibrosis area score (sirius red-positive area),NASH model mice [2]; trametinib 2 mg/kg i.p.,0.50±0.13 and 0.5
same,NAFLD activity score (NAS),NASH model mice [2]; trametinib 2 mg/kg i.p.,2.63±0.52
same,percentage of fibrosis area compared to vehicle administration group,"NASH model mice [2]; trametinib 2 mg/kg i.p., sirius red staining, p<0.0001",remarkable decrease
